The record followed here is the supplement of paper PMC11061612.

Assay [1] concerns A204 (Rhabdomyosarcoma). As to the kind of experiment: Bliss excess, mean over the matrix (fraction); higher = more synergy. The procedure, abridged: (§1)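 Bliss excess equals the observed combination effect minus the expected value EA + EB − EA·EB, where EA and EB are the effects of each agent alone. Combination Emax is the second-highest inhibition within the matrix. Inhibition was scaled from CellTiter-Glo 2.0 luminescence, with 0 set by vehicle wells and 1 by blank wells, after 72 hours of two-drug dosing of cells plated in 1536-well plates.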

The subject of assay [2] is LS-411N (Colorectal Carcinoma). Described as above. The procedure, abridged:
as §1

For assay [3], the system named is EPLC-272H (Other Solid Carcinomas). The description is as above. An outline of the steps:
as §1

In assay [4] the test system is KYSE-140 (Esophageal Squamous Cell Carcinoma). Described as above. The procedure, abridged:
as §1

In assay [5] the test system is G-402 (Other Solid Carcinomas). The description is as above. The procedure, abridged: as §1
For assay [6], the system named is GCT (Other Solid Carcinomas). Described as above. An outline of the steps: as §1
In assay [7] the test system is A253 (Head and Neck Carcinoma). The description is as above. The procedure, abridged: as §1
In assay [8] the test system is CESS (Acute Myeloid Leukemia). Described as above. An outline of the steps:
as §1

Assay [9] deals with NB13 (Neuroblastoma). The assay is described as above. The procedure, abridged: as §1
Assay [10] concerns TE-10 (Esophageal Squamous Cell Carcinoma). The description is as above. An outline of the steps: as §1
For assay [11], the system named is JVM-2 (B-Cell Non-Hodgkin's Lymphoma). The assay is described as above. An outline of the steps: as §1
Assay [12] has as its system KP-N-YN (Neuroblastoma). As to the kind of experiment: combination Emax (second highest fraction inhibited in the dose matrix, 72 h); higher = more inhibition; extreme values may be limits of the assay. The procedure, abridged: as §1

As to `CN(CCO)CC[C@H](CSc1ccccc1)Nc1ccc(S(=O)(=O)NC(=O)c2ccc(N3CCC([C@@H](O)c4ccccc4-c4ccc(Cl)cc4)CC3)cc2)cc1S(=O)(=O)C(F)(F)F` [AZD4320] + C[C@@H](Nc1cc(F)cc(F)c1)c1cc(C(=O)N(C)C)cc2c(=O)cc(N3CCOCC3)oc12 [AZD8186] (first compound max 1 µM, 7x7, partner max 3 µM), the Bliss excess in assay [1] is 0.0119; in [2], 0.031; in assay [3] it was 0.0633; in [4], -0.0136; in assay [5], 0.0818; in assay [6], 0.0052. In addition, the Bliss excess is 0.0229 in assay [7]; -0.0209 in [8]; 0.0205 in [9]; 0.0157 in assay [10]; 0.0133 in [11].
For `CN(CCO)CC[C@H](CSc1ccccc1)Nc1ccc(S(=O)(=O)NC(=O)c2ccc(N3CCC([C@@H](O)c4ccccc4-c4ccc(Cl)cc4)CC3)cc2)cc1S(=O)(=O)C(F)(F)F` [AZD4320] + Cc1cc2ncnn2cc1Nc1ncc2c(n1)n(C1CCOCC1)c(=O)n2C [AZD7648] (first compound max 1 µM, 7x7, partner max 10 µM), the Bliss excess is -0.0551 in [1]; -0.0132 in assay [2]; -0.0318 in [3]; -0.0866 in assay [4]; -0.0144 in assay [5]; -0.0504 in [6]. The Bliss excess in assay [7] is -0.0253; in [8] it was -0.0106; in assay [9], -0.0223; in [10], -0.0276; in assay [11] it was -0.0111.
Consider `CN(CCO)CC[C@H](CSc1ccccc1)Nc1ccc(S(=O)(=O)NC(=O)c2ccc(N3CCC([C@@H](O)c4ccccc4-c4ccc(Cl)cc4)CC3)cc2)cc1S(=O)(=O)C(F)(F)F` [AZD4320] + Cn1cnc2c(F)c(Nc3ccc(Br)cc3Cl)c(C(=O)NOCCO)cc21 [Selumetinib] (first compound max 1 µM, 7x7, partner max 3 µM), for which the Bliss excess is -0.0054 in [1]; 0.0165 in assay [2]; 0.0108 in [3]; 0.0178 in assay [4]; 0.0153 in assay [5]; 0.0789 in [6]. The Bliss excess was 0.0339 in assay [7]; -0.0701 in assay [8]; 0.0039 in assay [9]; -0.0187 in assay [10]; 0.025 in assay [11].
As to `Cc1cc2ncnn2cc1Nc1ncc2c(n1)n(C1CCOCC1)c(=O)n2C` [AZD7648] + C=CCn1c(=O)c2cnc(Nc3ccc(N4CCN(C)CC4)cc3)nc2n1-c1cccc(C(C)(C)O)n1 [AZD1775] (first compound max 10 µM, partner max 1 µM), the Bliss excess in assay [1] is -0.0041; in assay [2], -0.0318; in assay [3] it was 0.0042; in assay [4] it was 0.0004; in assay [5], 0.0111; in assay [6], -0.0309. Further, the Bliss excess in [7] is 0.0493; in [8], 0.028; in [9] it was -0.0531; in assay [10], 0.0053; in [11] it was -0.0458. Also, the “combination Emax” value in assay [12] was found to be 0.942.
Take `Cc1cc2ncnn2cc1Nc1ncc2c(n1)n(C1CCOCC1)c(=O)n2C` [AZD7648] + CCN(CCO)CCCOc1ccc2c(Nc3cc(CC(=O)Nc4cccc(F)c4)[nH]n3)ncnc2c1 [AZD2811] (first compound max 10 µM, 7x7, partner max 1 µM): the Bliss excess worked out at 0.0034 in [1]; 0.0255 in assay [2]; 0.0143 in [3]; 0.033 in assay [4]; 0.0421 in [5]; 0.0625 in [6]. For the same compound, the Bliss excess in assay [7] stood at 0.0411; in assay [8], 0.0195; in assay [9], 0.056; in assay [10] it was 0.043; in assay [11], 0.0382. The “combination Emax” value in [12] amounted to 0.6.
Take `Cc1cc2ncnn2cc1Nc1ncc2c(n1)n(C1CCOCC1)c(=O)n2C` [AZD7648] + CN(C)CCCOc1ccc(-c2ccc3ncc4c(c3c2)n(C2CCOCC2)c(=O)n4C)cn1 [AZD0156] (first compound max 10 µM, 7x7, partner max 1 µM): the Bliss excess is -0.0372 in assay [1]; -0.0081 in assay [2]; -0.0251 in [3]; -0.0325 in [4]; -0.0271 in assay [5]; 0.0042 in [6]. Also, the Bliss excess in assay [7] is 0.0149; in [8] it was -0.0013; in assay [9], -0.0173; in assay [10] it was -0.0023; in assay [11] it was -0.0297. Also, the “combination Emax” value in [12] came to 0.265.
`Cc1cc2ncnn2cc1Nc1ncc2c(n1)n(C1CCOCC1)c(=O)n2C` [AZD7648] + C[C@@H]1COCCN1C2=NC(=NC(=C2)C3(CC3)[S@](=N)(=O)C)C4=C5C=CNC5=NC=C4 [AZD6738] (first compound max 10 µM, 7x7, partner max 10 µM): the Bliss excess is -0.0105 in assay [1]; -0.0185 in assay [2]; -0.0093 in [3]; -0.0248 in [4]; 0.0185 in [5]; 0.0097 in assay [6]. Further, the Bliss excess is 0.0402 in [7]; 0.0058 in assay [8]; -0.0124 in [9]; 0.0327 in assay [10]; -0.0555 in assay [11]. In assay [12], the “combination Emax” value was found to be 0.947.
In the case of `Cc1cc2ncnn2cc1Nc1ncc2c(n1)n(C1CCOCC1)c(=O)n2C` [AZD7648] + O=C(c1cc(Cc2n[nH]c(=O)c3ccccc23)ccc1F)N1CCN(C(=O)C2CC2)CC1 [Olaparib] (first compound max 10 µM, 7x7, partner max 10 µM), the Bliss excess was -0.0802 in assay [1]; -0.0195 in [2]; 0.0608 in assay [3]; -0.0146 in [4]; -0.0814 in assay [5]; -0.0488 in assay [6]. Further, the Bliss excess in [7] is -0.0419; in assay [8] it was -0.0101; in assay [9], -0.0247; in assay [10], 0.011; in assay [11], -0.0275. In assay [12], the “combination Emax” value stood at 0.346.
For `COc1cc2c(cc1OCCCCCOc1cc3c(cc1OC)C(=O)N1C=C(C)C[C@H]1C=N3)N=C[C@@H]1CC(C)=CN1C2=O` [SG3199] + O=C(c1cc(Cc2n[nH]c(=O)c3ccccc23)ccc1F)N1CCN(C(=O)C2CC2)CC1 [Olaparib] (first compound max 0.001 µM, 7x7, partner max 10 µM), the Bliss excess in [1] is -0.0686; in assay [2], -0.0255; in [3], -0.0023; in assay [4], -0.0186; in [5], -0.0289; in assay [6], -0.0325. Also, the Bliss excess in assay [7] was -0.0426; in assay [8], -0.0156; in assay [9], -0.0143; in assay [10], -0.0402; in assay [11], -0.0219. Besides, the “combination Emax” value in assay [12] is 0.341.
